Measured values: patent US12649732B2, “Polymorphs of (R)-N-(5-(5-isopropyl-1,2,4-oxadiazol-3-yl)-2,3-dihydro-1H-inden-1-yl)-2-methyl-2H-tetrazole-5-carboxamide” (Cytokinetics, Inc., priority 2019, dated 2026)

Legend:
Type in all cases: physicochemical
[1] = Stability study: XRPD after storage for 7 days
Procedure: Polymorphic Form I of (R)—N-(5-(5-isopropyl-1,2,4-oxadiazol-3-yl)-2,3-dihydro-1H-inden-1-yl)-2-methyl-2H-tetrazole-5-carboxamide was analyzed by XRPD, DSC, TGA, and DVS. […] As shown in the TGA graph, no weight loss prior to degradation, which starts at about 230° C., was observed. […] Chemical stability study of Form I was also performed. XRPD patterns were measured after storage of samples of Form I for 7 days at 40° C./75% RH and 25° C./97% RH.
Polymorphic Form I of (R)—N-(5-(5-isopropyl-1,2,4-oxadiazol-3-yl)-2,3-dihydro-1H-inden-1-yl)-2-methyl-2H-tetrazole-5-carboxamide (500 mg) was suspended in n-propyl acetate (50 vol) and stirred at 50° C. After 10 minutes, a clear solution was obtained. The solvent was removed under reduced pressure (100 ml round-bottom flask). The solid obtained was analyzed by XRPD and determined as a mixture of Form I and Form II. The solid was suspended in n-propyl acetate (40 vol) and stirred at 50° C. After 10 minutes, a clear solution was obtained. The solvent was removed under reduced pressure in a larger flask (250 ml round-bottom flask). The resulting solid was analyzed by XRPD, DSC, TGA, and GVS and determined as Form II. […] As shown in the DSC graph (sample heated at 10° C./min), an endotherm onset at about 133° C., an exotherm onset at about 135° C., and an endotherm onset at about 152° C. were observed. As shown in the TGA graph, a weight loss of about 1.1% between about 83° C. and about 160° C. prior to degradation was observed. […] Chemical stability study of Form II was also performed. XRPD patterns were measured after storage of samples of Form II for 7 days at 40° C./75% RH and 25° C./97% RH.

[2] = Dynamic Vapor Sorption (DVS); details: 0-90% RH range, 25° C.
Procedure: DVS data were obtained using a SMS DVS Intrinsic moisture sorption analyzer, controlled by DVS Intrinsic Control software. The sample temperature was maintained at 25° C. by the instrument controls. The humidity was controlled by mixing streams of dry and wet nitrogen, with a total flow rate of 200 ml/min. The relative humidity was measured by a calibrated Rotronic probe (dynamic range of 1.0-100% RH), located near the sample. The weight change, (mass relaxation) of the sample as a function of % RH was constantly monitored by a microbalance (accuracy ±0.005 mg).
Typically, 5-30 mg of sample was placed in a tared mesh stainless steel basket under ambient conditions. The sample was loaded and unloaded at 40% RH and 25° C. (typical room conditions). A moisture sorption isotherm was performed as outlined below (2 scans per complete cycle). The standard isotherm was performed at 25° C. at 10% RH intervals over a 0-90% RH range. Typically, a double cycle (4 scans) was carried out. Data analysis was carried out within Microsoft Excel using the DVS Analysis Suite.

[3] = Polymorph screening (isothermal maturation, liquid assisted grinding, temperature cycling maturation)
Procedure: Polymorphic Form I of (R)—N-(5-(5-isopropyl-1,2,4-oxadiazol-3-yl)-2,3-dihydro-1H-inden-1-yl)-2-methyl-2H-tetrazole-5-carboxamide (ca. 2 g) was suspended in MeCN:H2O (90 vol) and stirred at 50° C. for 40 minutes. The clear solution was filtered and flash frozen in a dry ice/acetone bath and placed for lyophilisation. The solid isolated was analyzed by XRPD and determined to be poorly crystalline Form I.
Poorly crystalline Form I (ca. 15 mg) was dispensed into HPLC vials. Solvent was added (10 vol) and the samples were shaken/stirred at 50° C. After 6 days, suspensions were filtered through a Millipore filter plate and dried under suction for 30 minutes prior to XPRD analysis.
Polymorphic Form I of (R)—N-(5-(5-isopropyl-1,2,4-oxadiazol-3-yl)-2,3-dihydro-1H-inden-1-yl)-2-methyl-2H-tetrazole-5-carboxamide was dispensed into HPLC vials and two stainless steel grinding balls (3 mm diameter) added. Solvent was added (10 μl) and the samples were subjected to grinding on a Fritsch planetary mill (500 rpm, 2 hour duration). Solids obtained post grinding were analyzed by XRPD. As shown below in Table 5, Form I was obtained from all of the experiments.
Polymorphic Form I of (R)—N-(5-(5-isopropyl-1,2,4-oxadiazol-3-yl)-2,3-dihydro-1H-inden-1-yl)-2-methyl-2H-tetrazole-5-carboxamide (20 mg) was dispensed into HPLC vials. The selected solvent was added (5 vol) to each sample then placed for maturation (RT/50° C., cycled with 4 hours at each temperature). After 2 days, the samples were removed from the maturation chamber. Suspensions were filtered through a Millipore plate and dried under suction for 20 minutes prior to XRPD analysis. Solutions obtained were treated with increasing aliquots of anti-solvent until a suspension was obtained or maximum of 5 eq. had been added. Samples were shaken at 25° C. for 30 minutes. Suspensions obtained after shaking were filtered through a Millipore plate and dried under suction for 20 minutes prior to XRPD analysis. Solutions and samples containing a small amount of solid were shaken at 25° C. overnight with any solutions obtained allowed to evaporate at RT. […]

[4] = Competitive slurry experiments between Form I and Form II
Procedure: Competitive slurry experiments between Form I and Form II in different solvents were conducted. Form I was suspended in the selected solvents at both 50° C. and 5° C. and stirred for a minimum of 1 hour before filtration to create a saturated solution. Form I (ca. 10 mg) and Form II (ca. 10 mg) were combined in a HPLC vial. Each sample was treated with 0.5 ml of the selected saturated solution. The samples were stirred at the selected temperature for 6 days. Solids obtained were filtered and dried under suction for a few minutes prior to characterization. Samples were slightly wet during XRPD analysis.

Row | changes in XRPD patterns after storage ([1]; 7 days at 25° C./97% RH) | changes in XRPD patterns after storage ([1]; 7 days at 40° C./75% RH) | moisture uptake as determined by DVS [2] [% w/w] | relative stability of form ([3]; isothermal maturation, 50° C., 6 days, various solvents) | relative stability of form ([3]; liquid assisted grinding, 500 rpm, 2 hour, various solvents) | relative stability of form ([3]; temperature cycling maturation RT/50° C., 2 days, and anti-solvent screen) | XRPD analysis (form after slurry) ([4]; Sample 01, MeCN, 5 °C, 6 days) | XRPD analysis (form after slurry) ([4]; Sample 02, n-propyl acetate, 5 °C, 6 days) | XRPD analysis (form after slurry) ([4]; Sample 03, MEK, 5 °C, 6 days) | XRPD analysis (form after slurry) ([4]; Sample 04, H2O:MeCN (25:75), 5 °C, 6 days) | XRPD analysis (form after slurry) ([4]; Sample 05, H2O:MeCN (75:25), 5 °C, 6 days) | XRPD analysis (form after slurry) ([4]; Sample 06, MeCN, 50 °C, 6 days) | XRPD analysis (form after slurry) ([4]; Sample 07, n-propyl acetate, 50 °C, 6 days) | XRPD analysis (form after slurry) ([4]; Sample 09*, H2O:MeCN (25:75), 50 °C, 6 days, also treated with neat solvent) | XRPD analysis (form after slurry) ([4]; Sample 10, H2O:MeCN (75:25), 50 °C, 6 days) | XRPD analysis (form after slurry) ([4]; Sample 11, MEK, 50 °C, 6 days (repeat of 08)) | XRPD analysis (form after slurry) ([4]; Sample 12, H2O:MeCN (25:75), 50 °C, 6 days (repeat of 09)) | Compound
1 | No significant changes | No significant changes | 0.24 | – | – | – | – | – | – | – | – | – | – | – | – | – | – | CC(C)c1nc(-c2ccc3c(c2)CC[C@H]3NC(=O)c2nnn(C)n2)no1 [Form II, (R)—N-(5-(5-isopropyl-1,2,4-oxadiazol-3-yl)-2,3-dihydro-1H-inden-1-yl)-2-methyl-2H-tetrazole-5-carboxamide]
2 | No significant changes | No significant changes | 0.36 | most stable form | most stable form | most stable form | – | – | – | – | – | – | – | – | – | – | – | CC(C)c1nc(-c2ccc3c(c2)CC[C@H]3NC(=O)c2nnn(C)n2)no1 [Form I, (R)—N-(5-(5-isopropyl-1,2,4-oxadiazol-3-yl)-2,3-dihydro-1H-inden-1-yl)-2-methyl-2H-tetrazole-5-carboxamide]
3 | – | – | – | – | – | – | Form 1 | Form 1 | Form 1 | Form 1 | Form 1 | Form I | Form I | Form I | Form I | Form I | Form I | CC(C)c1nc(-c2ccc3c(c2)CC[C@H]3NC(=O)c2nnn(C)n2)no1 [Form I and Form II, (R)—N-(5-(5-isopropyl-1,2,4-oxadiazol-3-yl)-2,3-dihydro-1H-inden-1-yl)-2-methyl-2H-tetrazole-5-carboxamide]
